Measured values published in PubChem BioAssay AID2305 (GlaxoSmithKline (GSK), 2010).

Test system: P. falciparum 3D7 growth, pLDH absorbance
Assay: P. falciparum 3D7 growth inhibition, dose response, strain 3D7 (AID 2305)

| Structure (SMILES) | IC50 [nM] |
| --- | --- |
| O=C(CN1CCN(S(=O)(=O)C=Cc2ccccc2)CC1)Nc1cc(C(F)(F)F)ccc1Cl | 780 |
| N#Cc1ccc2c(c1)CN(CCCCNC(=O)c1ccc(-c3ccccc3)cc1)CC2 | 890 |
| CCC(=O)c1c(C)n(-c2ncnc3c2nc(C)n3-c2ccc(C)cc2C)c2ccccc12 | 650 |
| Cc1noc(C)c1-c1ccc(C(=C2CCCCCCC2)c2ccc(O)cc2)cc1 | 1050 |
| C=Cc1c(C2CCN(CCCCNC(=O)c3ccc(-c4ccc(C#N)cc4)cc3)CC2)ccc2c1CCCC2 | 880 |
| Cc1cc2nc(-c3ccc(C(=O)NCc4ccc(Cl)c(Cl)c4)cc3)[nH]c2cc1C | 830 |
| CCC[C@@H]([C@@H](CC1CCCCC1)C(=O)N[C@H](C(=O)Nc1nccs1)[C@H](C)O)N(O)C=O | 150 |
| Cc1ccccc1NC(=S)NC1CCN(CCCCCNC(=O)/C=C/c2ccc(Cl)c(Cl)c2)CC1 | 790 |
| Cc1cc(NN=Cc2cccc(F)c2)c2cc(F)ccc2n1 | 480 |
| Cc1ccc(CCNCC(O)c2cccc(C(F)(F)F)c2)cc1 (configuration not stated) | 870 |
| CNC(=O)NC1CCN(Cc2c(-c3cccs3)nc3ccccc3c2C(=O)N[C@@H](C)C2CCCCC2)CC1 | 220 |
| O=C(NC(c1ccccc1)c1ccccc1)C(c1cc2ccccc2o1)N1CCN(C(c2ccccc2)c2ccccc2)CC1 (configuration not stated) | 680 |
| CN1CCN(CCCN(Cc2ccc(-c3ccc(CNCCc4ccccc4)cc3)cc2)C(=O)c2cccs2)CC1 | 1430 |
| COc1ccc2nccc(N3CCC(NCCNCc4ccc5c(n4)NC(=O)CS5)C3)c2n1 (configuration not stated) | 690 |
| O=c1ccc2ccc(F)c3c2n1CC3CN1CCC(NCc2ccc(-c3cccc(Cl)c3)nc2)CC1 (configuration not stated) | 990 |
| CN1CCC(N2CCN(Cc3ccc(-c4ccc(-c5nc6ccccc6[nH]5)s4)cc3)CC2)CC1 | 140 |
| CS(=O)(=O)Nc1ccc2[nH]cc(C3CCN(CC4CCC(NC(=O)/C=C/c5ccc(Cl)c(Cl)c5)CC4)CC3)c2n1 (configuration not stated) | 780 |
| Cc1cccc2[nH]c(-c3ccc(-c4cccc(NC(=O)CN5CCN(C)CC5)c4)s3)nc12 | 830 |
| CCN(CC)c1nc(N)c2c(N)nc3c(c2c1C#N)C(=O)CN3Cc1ccccc1 | 70 |
| O=S(=O)(NCCN1CCCC1)c1cccc(-c2cccc(CNCc3ccccc3)c2)c1 | 810 |
| Cc1cccc2[nH]c(-c3ccc(-c4cccc(NC(=O)Nc5ccc(Cl)cc5)c4)s3)nc12 | 520 |
| CCCc1cc(Cc2cnc(N)nc2N)cc(CCC)c1OCCCCC(=O)OC | 40 |
| CC(C)C1C(O)=C(c2ccc3ccccc3c2)C(=O)N1Cc1cccc(F)c1 (configuration not stated) | 810 |
| COc1ccc(-c2nnc(Sc3ccc(C#N)c([N+](=O)[O-])c3)n2CCC(C)C)cc1 | 1110 |
| CC(C)n1cc(CN2CCCC(C(=O)Nc3cccc(-c4cc5ccccc5[nH]4)c3)C2)cn1 (configuration not stated) | 1000 |

| Structure (SMILES) | IC50 [nM] |
| --- | --- |
| O=C(Nc1cccc(-c2ccc(-c3nc4ccccc4[nH]3)cc2)c1)c1cnn2cccnc12 | 1060 |
| O=C(/C=C/c1ccc(Cl)c(Cl)c1)NCCCCCN1CCCN(C(=O)Nc2ccc(OC(F)F)cc2)CC1 | 830 |
| CC(=O)Nc1ccc(OCCN(CC(C)C)c2ccc(C(F)(F)F)c(C#N)c2)c(Cl)c1 | 310 |
| COc1cccc(C2C(C(=O)Nc3ccccc3)=C(C)N=c3s/c(=C\c4ccc(O)cc4)c(=O)n32)c1 (configuration not stated) | 580 |
| Cc1noc(C)c1-c1cccc(CNCc2cccc(-c3ccc(-c4nc5c(C)cccc5[nH]4)s3)c2)c1 | 210 |
| Cc1cc(=O)oc2c1ccc1oc(C(O)c3ccc(Cl)cc3)c(C)c12 (configuration not stated) | 130 |
| Cc1[nH]c(C)c(-c2ccc(-c3ccc(OC(F)(F)F)cc3)cc2)c(=O)c1Br | 40 |
| CN(c1ccc(NC(=O)Nc2cc(C(F)(F)F)ccc2F)cc1)c1ccnc(NCCN2CCOCC2)n1 | 510 |
| O=C(CN(c1cccc(C(F)(F)F)c1)S(=O)(=O)c1ccc(Cl)cc1)NCCC(c1ccccc1)c1ccccc1 | 740 |
| CCCCC(=O)Nc1cc(=O)[nH]c2nc(-c3ccc(Cl)cc3)nn12 | 710 |
| N=C(N)c1ccc(-c2cc(-c3cccc(C(=N)N)c3)on2)cc1 | 10 |
| Cc1cccc2[nH]c(-c3cccc(-c4cccc(NC(=O)CCc5cnc[nH]5)c4)c3)nc12 | 550 |
| O=c1cc(NCCCNCc2[nH]c3cc(Cl)cc(Cl)c3c2Cn2cccn2)[nH]c2ccccc12 | 970 |
| O=C(Nc1ccc(Cl)cc1)Nc1ccc(Cn2ncc(N3CCCNCC3)c(Cl)c2=O)cc1 | 780 |
| Oc1c(C(Nc2nc3ccccc3s2)c2ccc(OC(F)F)cc2)ccc2cccnc12 (configuration not stated) | 570 |
| Cc1cnn(-c2cccc(C(=O)NC3CCC(CCN4CCc5ccc(C#N)cc5CC4)CC3)c2)c1 (configuration not stated) | 930 |
| O=C(/C=C/c1ccc(Cl)c(Cl)c1)NCCCCCN1CCC(NC(=O)Nc2ccc(C(F)(F)F)cc2)C1 (configuration not stated) | 510 |
| COc1nc(NCC(C)C)nc(Oc2ccc(=O)n(Cc3ccccc3)n2)n1 | 630 |
| Oc1ccc(CCNc2nc(NCc3ccccc3-c3ccc(C(F)(F)F)cc3)nc(NC3CCNCC3)n2)cc1 | 920 |
| O=[N+]([O-])c1cccc(Nc2nccc(-c3cnn4ncccc34)n2)c1 | 180 |
| CCc1cn2c3c(cc(C(=O)N[C@@H](Cc4ccccc4)[C@H](O)CN[C@@H](C)CC)cc13)N(C)S(=O)(=O)CC2 | 70 |
| COc1ccc(-c2ccccc2OCCCNc2nc(NCCc3ccc(O)cc3)nc(N3CCNCC3)n2)cc1 | 790 |
| COC(=O)c1ccc(CC(C)NCC(O)c2cccc(Br)c2)cc1 (configuration not stated) | 690 |
| c1ccc(COc2ccnc(NCCCOc3cccc(CN4CCCCC4)c3)c2)cc1 | 990 |
| Cc1[nH]c(C)c(-c2ccc(Oc3ccc(Cl)c(Cl)c3)cc2)c(=O)c1Cl | 110 |

| Structure (SMILES) | IC50 [nM] |
| --- | --- |
| O=C(Nc1ccc(-c2nc3ccc(NC(=O)c4ccc(Br)cc4)cc3[nH]2)cc1)c1ccc(Br)cc1 | 790 |
| CN(C)c1ccc(C2c3nc[nH]c3CCN2C(=O)Nc2cccc([N+](=O)[O-])c2)cc1 (configuration not stated) | 970 |
| O=C(Nc1ccccc1)c1ccc(-c2cc3ccncc3cc2OC2CCNCC2)s1 | 650 |
| COc1ccc(NC(=O)c2ccc(-c3nc(-c4ccccc4)cs3)cc2)cc1N1CCN(C)CC1 | 990 |
| CN1CCC(Oc2ccc(CN3CC[C@H](NC(=O)c4ccc(Cl)c(Cl)c4)C3)c3ccccc23)C1 (some centres not stated) | 880 |
| O=C(Nc1cccc(CN2CCCN(Cc3ccsc3)CC2)c1)c1ccc(-c2ccccc2)cc1 | 1340 |
| c1ccc(CNc2cc(-c3ccccn3)nc(-c3ccccn3)n2)cc1 | 300 |
| CCCn1cc2c(ccc3nc(N)nc(N)c32)n1 | 80 |
| CC(CN1CCN(C)CC1)C(=O)Nc1cccc(-c2ccc(-c3nc4ccc(F)cc4[nH]3)cc2)c1 (configuration not stated) | 810 |
| CN1CCCN(Cc2ccc(-c3cccc(NC(=O)c4ccc(C#N)cc4)c3)cc2)CC1 | 740 |
| CS(=O)(=O)NCCCNCc1ccc(-c2ccc(-c3nc4ccc(F)cc4[nH]3)cc2)cc1 | 930 |
| N=c1n(CCN2CCCC2)c2ccccc2n1CC(O)c1ccc(Cl)c(Cl)c1 (configuration not stated) | 280 |
| Cc1cnc2cc3c(cc2c1N1CCN(C)CC1)NCC3 | 780 |
| COc1ccc(NC(=O)[C@H](Cc2ccccc2)Nc2cc(C)nc(NCCOc3ccccc3)n2)cc1 | 1070 |
| Cc1ccc(-c2[nH]n3c(=O)c4c(nc3c2C)CCCC4)cc1 | 220 |
| Cc1nnsc1C(=O)Nc1ccc(-c2cccc(-c3nc4c(C)cccc4[nH]3)c2)cc1 | 630 |
| CCOC(=O)N1CCN(CCCCNc2c3ccc(Cl)cc3nc3ccc(OC)cc23)CC1 | 120 |
| CC[C@@H]([C@@H](CC(C)C)C(=O)N[C@@H](CCCCNC(=O)OCc1ccccc1)C(=O)Nc1ccccn1)N(O)C=O | 110 |
| Cc1cc(Nc2ccc(O)cc2)nc2cc(O)ccc12 | 760 |
| Nc1nc2c(ncn2OC[C@H]2COP(=O)(O)CO2)c(=O)[nH]1 | 570 |
| Cc1ccc(NC(=O)c2c(C)noc2-c2snnc2C)cc1 | 1370 |
| O=C(NCCCCN1CCC(c2ccc3c(c2OCCO)CCCC3)CC1)c1sc(-c2ccc(C(F)(F)F)cc2)nc1CO | 1050 |
| NC(=O)NC(=O)C=Cc1ccco1 | 150 |
| CCc1ccc(NC(=O)N(CCCn2ccnc2)Cc2csc(-c3ccc(CNCc4ccccc4)cc3)n2)cc1 | 760 |
| O=C1CCCN1CCCNCc1ccc(-c2cccc(-c3nc4ccc(C(F)(F)F)cc4[nH]3)c2)cc1 | 190 |

| Structure (SMILES) | IC50 [nM] |
| --- | --- |
| CC(C)CN1CCN(CCNc2c3ccccc3nc3ccccc23)CC1 | 820 |
| CCN(CC)CCN(Cc1ccc(-c2ccc(C(F)(F)F)cc2)cc1)C(=O)Cn1c(CCc2cccc(F)c2F)nc(=O)c2sccc21 | 900 |
| Cc1cc(=O)c(-c2ccc(Sc3ccc(Cl)cc3)cc2)c(C)[nH]1 | 970 |
| CN(C)Cc1cccc(-c2ccc(NC(=O)c3ccc4c(=O)n(CCN5CCCCC5)cnc4c3)cc2)c1 | 650 |
| Cc1cc(N[C@@H](Cc2ccccc2)C(=O)NCCc2ccccc2)nc(NCC2CCCCC2)n1 | 920 |
| CN=C(NC)c1cccc(NC(=O)C=Cc2ccc(C=CC(=O)Nc3cccc(C(=NC)NC)c3)cc2)c1 | 160 |
| Cc1cnc(CNCc2ccc(S(=O)(=O)Nc3ccc(Oc4cccc(Cl)c4)cc3)cc2)cn1 | 770 |
| CC(C)NCc1cccc(-c2cccc(-c3nc4ccccc4[nH]3)c2)c1 | 800 |
| O=C(/C=C/c1ccc(Cl)c(Cl)c1)NCCCCCN1CCC(NC(=O)Nc2cc(F)ccc2F)CC1 | 700 |
| CN(Cc1cccc(C#N)c1)C1CCN(c2cc(NC(=O)c3ccc(F)cc3)ccn2)CC1 | 1070 |
| Cc1ccc2c(NN=CC=Cc3ccccc3)cc(C)nc2c1 | 1120 |
| CC(C)N(CCOc1ccc2c(c1)N(C(=O)Nc1ccc(Cl)c(Cl)c1)CC2)C(C)C | 370 |
| CC(C)(C)c1cc(C(=O)N2CCN(c3ncccc3C(F)(F)F)CC2)n(Cc2ccccc2)n1 | 250 |
| O=c1cc(NCCCNC(c2ccccc2)c2ccc(Cl)c(Cl)c2)[nH]c2ccccc12 (configuration not stated) | 1140 |
| Cc1ccc2nc(C)cc(NN=Cc3ccc([N+](=O)[O-])cc3)c2c1 | 790 |
| O=C(/C=C/c1ccc(Cl)c(Cl)c1)NCCCCCN1CC[C@H](NC(=O)c2sc3ccccc3c2Cl)C1 | 810 |
| O=C(Nc1cccc(CN2CCCN(Cc3ncc[nH]3)CC2)c1)c1cc2ccccc2s1 | 730 |
| Cc1cccc2[nH]c(-c3cccc(-c4cccc(NC(=O)Nc5ccc(Cl)cc5)c4)c3)nc12 | 240 |
| Cc1cc(N[C@@H](Cc2ccccc2)C(=O)NC2CCCC2)nc(Nc2ccccc2)n1 | 830 |
| CN(C)CCOc1cc(NC(=O)Nc2cccc([N+](=O)[O-])c2)ccc1I | 740 |
| O=C(CSc1nc2ccc([N+](=O)[O-])cc2s1)Nc1ccccc1-c1ccccc1 | 1170 |
| CC(=O)Oc1c(Br)c(C)nc(C)c1-c1ccc(Oc2ccc(OC(F)(F)F)cc2)cc1 | 130 |
